Results reported in US6737383B1, “Herbicidal oxadiazolidines” (priority 1999, dated 2004).

What was measured:
sourgrass = assay: Test D sourgrass; format: in vivo, Trichachne insularis; conditions: Preemergence, 0 to 100 scale
Excerpt: Seeds, tubers, or plant parts of Alexandergrass (Brachiaria plantaginea), bermuda-grass (Cynodon dactylon), common pursiane (Portulaca oleracea), common ragweed (Ambrosia elatior), common groundsel (Senecio vulgaris), dallisgrass (Paspalum dilatatum), goosegrass (Eleusine indica), guineagrass (Panicum maximum), itchgrass (Rottboellia exaltata), Johnson grass (Sorghum halepense), large crabgrass (Digitaria sanguinalis), pitted morningglory (Ipomoea lacunosa), purple nutsedge (Cyperus rotundus), sandbur (Cenchrus echinatus), sourgrass (Trichachne insularis), Spanishneedles (Bidens bipinnata), surinam grass (Brachiaria decumbens) and tall mallow (Malva sylvestris) were planted into greenhouse pots of flats containing greenhouse planting medium. Plant species were grown in separate pots or individual compartments. Preemergence applications were made within one day of planting the seed or plant part.
Test chemicals were formulated in a non-phytotoxic solvent mixture which included a surfactant and applied preemergence to the surface of the pot containing seeds in a sandy loam soil. Untreated control pots and treated pots were placed in the greenhouse for growth and visually evaluated for injury 14 to 21 days after herbicide application. Plant response ratings, summarized in Table C, are based on a 0 to 100 scale where 0 is no injury and 100 is complete control. A dash (−) response means no test result.

windgrass [1] = assay: Test E windgrass; format: in vivo, Apera spica-venti; conditions: Postemergence; for Plant response rating, Windgrass: 0 to 100 scale
Method: (§1) Compounds evaluated in this test were formulated in a non-phytotoxic solvent mixture which included a surfactant and applied to plants that were in the 1- to 4-leaf stage (postemergence application). A mixture of sandy loam soil and greenhouse potting mix in a 60:40 ratio was used for the postemergence test.
(§2) Plantings of these crops and weed species were adjusted to produce plants of appropriate size for the postemergence test. All plant species were grown using normal greenhouse practices. Crop and weed species include annual bluegrass (Poa annua), blackgrass (Alopecurus myosuroides), black nightshade (Solanum nigra), chickweed (Stellaria media), common poppy (Papaver rhoeas), deadnettle (Lamium amplexicaule), downy brome (Bromus tectorum), field violet (Viola arvensis), galium (Galium aparine), green foxtail (Setaria viridis), Italian ryegrass (Lolium multiflorum), jointed goatgrass (Aegilops cylindrica), kochia (Kochia scoparia), lambsquarters (Chenopodium album), littleseed canarygrass (Phalaris minor), rape (Brassica napus), redroot pigweed (Amaranthus retroflexus), Russian thistle (Salsola kali), scentless chamomile (Matricaria inodora), spring barley (Hordeum vulgare), sugar beet (Beta vulgaris), sunflower (Helianthus annuus), ivyleaf speedwell (Veronica hederaefolia), spring wheat (Triticum aestivum), winter wheat (Triticum aestivum), wild buckwheat (Polygonum convolvulus), wild mustard (Sinapis arvensis), wild oat (Avena fatua), windgrass (Apera spica-venti) and winter barley (Hordeum vulgare).
(§3) Treated plants and untreated controls were maintained in a greenhouse for approximately 21 to 28 days, after which all treated plants were compared to untreated controls and visually evaluated. […] A dash response (-) means no test result.

field bindweed = assay: Test C postemergence field bindweed; format: in vivo, Convolvulus arvensis; conditions: 0 to 100 scale, 0 no effect, 100 complete control
Method: as §1, with “grown for various periods of time before treatment” for “in the 1- to 4-leaf stage”
Plantings of these crops and weed species were adjusted to produce plants of appropriate size for the postemergence test. All plant species were grown using normal greenhouse practices. Crop and weed species include arrowleaf sida (Sida rhombifolia), barnyardgrass (Echinochloa crus-galli), cocklebur (Xanthium strumarium), common ragweed (Ambrosia elatior), corn (Zea mays), cotton (Gossypium hirsutum), eastern black nightshade (Solanum ptycanthum), fall panicum (Panicum dichotomiflorum), field bindweed (Convolvulus arvensis), giant foxtail (Setaria faberii), hairy beggarticks (Bidens pilosa), ivyleaf morningglory (Ipomoea hederacea), johnsongrass (Sorghum halepense), ladysthumb smartweed (Polygonum persicaria), lambsquarters (Chenopodium album), large crabgrass (Digitaria sanguinalis), purple nutsedge (Cyperus rotundus), redroot pigweed (Amaranthus retroflexus), soybean (Glycine max), surinam grass (Brachiaria decumbens), velvetleaf (Abutilon theophrasti) and wild poinsettia (Euphorbia heterophylla).
Treated plants and untreated controls were maintained in a greenhouse for approximately 14, to 21 days, after which all treated plants were compared to untreated controls and visually evaluated. Plant response ratings, summarized in Table C, were based upon a 0 to 100 scale where 0 was no effect and 100 was complete control. A dash response (−) means no test result.

large crabgrass = assay: Test C postemergence large crabgrass; format: in vivo, Digitaria sanguinalis; conditions: 0 to 100 scale, 0 no effect, 100 complete control
How it was run: (§4)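 Soil: sandy loam/potting mix 60:40. Treatment: postemergence, solvent + surfactant formulation. Readout: visual control score 0–100 vs untreated at ~14–21 days.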

common poppy = assay: Test E common poppy; format: in vivo, Papaver rhoeas; conditions: Postemergence; for Common poppy plant response rating: Rate 250 g/ha, 0 to 100 scale where 0 is no effect and 100 is complete control
Method: as §1, §2, §3

wild mustard = assay: Test E wild mustard; format: in vivo, Sinapis arvensis; conditions: Preemergence; for Wild mustard plant response rating (0 to 100 scale): Rate 250 g/ha
eastern black nightshade = assay: Test C postemergence eastern black nightshade; format: in vivo, Solanum ptycanthum; conditions: 0 to 100 scale, 0 no effect, 100 complete control
How it was run: as §4

windgrass [2] = assay: Test E windgrass; format: in vivo, Apera spica-venti; conditions: Preemergence; for Plant response rating, Windgrass: Rate 125 g/ha, 0 to 100 scale (0 no effect, 100 complete control)
bermuda-grass = assay: Test D bermudagrass; format: in vivo, Cynodon dactylon; conditions: Postemergence, 0 to 100 scale
pitted morningglory = assay: Test D pitted morningglory; format: in vivo, Ipomoea lacunosa; conditions: Postemergence, 0 to 100 scale
common pursiane = assay: Test D common purslane; format: in vivo, Portulaca oleracea; conditions: Postemergence, 0 to 100 scale
Green foxtail = assay: Test D green foxtail; format: in vivo; conditions: Postemergence, 0 to 100 scale, 0 no injury, 100 complete control
[3] = Rate 64 g/ha, 0 no injury, 100 complete control
[4] = Rate 125 g/ha, 0 to 100 scale (0 no effect, 100 complete control)
[5] = Rate 125 g/ha, 0 no injury, 100 complete control
[6] = Rate 16 g/ha, 0 no injury, 100 complete control
[7] = Rate 32 g/ha, 0 no injury, 100 complete control

SMILES	Plant response rating Sourgrass (sourgrass; [3])	Plant response rating Field bindweed (field bindweed; Rate 140 g/ha)	Plant response rating Field bindweed (field bindweed; Rate 560 g/ha)	Plant response rating Field bindweed (field bindweed; Rate 1120 g/ha)	Plant response rating, Large crabgrass (large crabgrass; Rate 140 g/ha)	Plant response rating, Large crabgrass (large crabgrass; Rate 280 g/ha)	Plant response rating, Large crabgrass (large crabgrass; Rate 560 g/ha)	Plant response rating, Large crabgrass (large crabgrass; Rate 1120 g/ha)	Common poppy plant response rating (common poppy)	Plant response rating, Wild mustard (wild mustard; [4])	Wild mustard plant response rating (0 to 100 scale) (wild mustard)	Plant response rating E. blacknightsh (eastern black nightshade; Rate 140 g/ha)	Plant response rating E. blacknightsh (eastern black nightshade; Rate 280 g/ha)	Plant response rating E. blacknightsh (eastern black nightshade; Rate 560 g/ha)	Plant response rating E. blacknightsh (eastern black nightshade; Rate 1120 g/ha)	Plant response rating, Windgrass (windgrass [2])	Plant response rating, Bermudagrass (bermuda-grass; [6])	Plant response rating, Bermudagrass (bermuda-grass; [7])	Plant response rating, Bermudagrass (bermuda-grass; [3])	Plant response rating, Bermudagrass (bermuda-grass; [5])	other results
COc1ccccc1-n1c(=O)on(C(=O)N(c2ccc(F)cc2)C(C)C)c1=O [Compound 30]	100																				
CC(C)N(C(=O)n1oc(=O)n(C)c1=O)c1ccc(F)cc1 [Compound 138]	98	0	0	50	0	10	85	85	40	40	55	0	10	70	70	100					Windgrass plant response rating (windgrass [1]; Rate 250 g/ha, 0 to 100 scale where 0 is no effect and 100 is complete control): 95; Plant response rating Field bindweed (field bindweed; Rate 280 g/ha): 0; Plant response rating, Comnion poppy (common poppy; Rate 125 g/ha, 0 to 100 scale): 20; Plant response rating Sourgrass (sourgrass; [5]): 100; Plant response rating Sourgrass (sourgrass; Rate 500 g/ha): 100; Windgrass plant response rating (0 to 100 scale) (windgrass [2]; Rate 250 g/ha): 100
CC(C)N(C(=O)n1oc(=O)n(C2CC2)c1=O)c1ccc(F)cc1 [Compound 242]		0	0	0	10	30	85	85	20	65	65	0	40	60	90	100	90	100	100	100	Plant response rating, Bermudagrass (bermuda-grass; Rate 250 g/ha): 100; Plant response rating, Windgrass (windgrass [1]; Rate 62 g/ha): 90; Plant response rating, Windgrass (windgrass [1]; Rate 125 g/ha, 0 is no effect, 100 is complete control): 95; Plant response rating, Windgrass (windgrass [1]; Rate 500 g/ha, 0 is no effect, 100 is complete control): 95; Plant response rating, P. morninglory (pitted morningglory; [6]): 0; Plant response rating, P. morninglory (pitted morningglory; [7]): 0; Plant response rating, P. morninglory (pitted morningglory; [3]): 0; Plant response rating, P. morninglory (pitted morningglory; [5]): 0; Plant response rating, P. morninglory (pitted morningglory; Rate 250 g/ha): 0; Plant response rating, C. purslane (common pursiane; [6]): 0; Plant response rating, C. purslane (common pursiane; [7]): 0; Plant response rating, C. purslane (common pursiane; [3]): 0; Plant response rating, C. purslane (common pursiane; [5]): 0; Plant response rating, C. purslane (common pursiane; Rate 250 g/ha): 0; Plant response rating, Common poppy (common poppy; Rate 62 g/ha, 0 to 100 scale): 55; Plant response rating, Common poppy (common poppy; Rate 125 g/ha, 0 to 100 scale, 0 is no effect, 100 is complete control): 40; Plant response rating, Common poppy (common poppy; Rate 500 g/ha, 0 to 100 scale, 0 is no effect, 100 is complete control): 0; Green foxtail plant response rating (Green foxtail; Rate 64 g/ha): 100; Green foxtail plant response rating (Green foxtail; Rate 125 g/ha): 100; Plant response rating, Wild mustard (wild mustard; Rate 500 g/ha, 0 to 100 scale where 0 is no effect and 100 is complete control): 70
CC(C)N(C(=O)n1oc(=O)n(C2CCCCCC2)c1=O)c1ccc(F)cc1F [Compound 342]																	20	30	90	100	Plant response rating, Bermudagrass (bermuda-grass; Rate 250 g/ha): 100; Plant response rating, P. morninglory (pitted morningglory; [6]): 0; Plant response rating, P. morninglory (pitted morningglory; [7]): 0; Plant response rating, P. morninglory (pitted morningglory; [3]): 0; Plant response rating, P. morninglory (pitted morningglory; [5]): 0; Plant response rating, P. morninglory (pitted morningglory; Rate 250 g/ha): 0; Plant response rating, C. purslane (common pursiane; [6]): 0; Plant response rating, C. purslane (common pursiane; [7]): 0; Plant response rating, C. purslane (common pursiane; [3]): 0; Plant response rating, C. purslane (common pursiane; [5]): 0; Plant response rating, C. purslane (common pursiane; Rate 250 g/ha): 0; Green foxtail plant response rating (Green foxtail; Rate 64 g/ha): 0; Green foxtail plant response rating (Green foxtail; Rate 125 g/ha): 60
